Experimental data: ChEMBL document CHEMBL5226375, “Synthesis and Comprehensive in Vivo Activity Profiling of Olean-12-en-28-ol, 3β-Pentacosanoate in Experimental Autoimmune Encephalomyelitis: A Natural Remyelinating and Anti-Inflammatory Agent” (J Nat Prod, 2023)
Calls of active or inactive are those of the source. The calls are words filed in the database; no cut-off is given here.

Columns and labels:
[1] = Stability of the compound in THF/phosphate buffer at pH 7.4 incubated for 2 hrs under stirring conditions by 1H-NMR analysis; format: physicochemical; conditions: pH 7.4, 2 h
[2] = test system: Mus musculus; test: Anti-inflammatory activity against MOG35-55-induced experimental autoimmune encephalomyelitis C57BL/6 mouse model assessed as reduction in EAE symptoms by measuring reduction in clinical score at 300 to 600 mg/kg/day, ig starting from 12th day of immunization and measured on day 14 post-immunization; format: functional, organism-based; conditions: dose 300-600 mg/kg/day, time 2.0 day
[3] = test system: Mus musculus; test: Anti-inflammatory activity against MOG35-55-induced experimental autoimmune encephalomyelitis C57BL/6 mouse model assessed as fold change in CCL5 gene expression in brain at 600 mg/kg/day, ig for 14 days starting from 12th day of immunization by RT-qPCR analysis relative to control; format: functional; conditions: time 14 day
[4] = test system: Mus musculus; test: Anti-inflammatory activity against MOG35-55-induced experimental autoimmune encephalomyelitis C57BL/6 mouse model assessed as fold change in CXCL10 gene expression in brain at 600 mg/kg/day, ig for 14 days starting from 12th day of immunization by RT-qPCR analysis relative to control; format: functional; conditions: time 14 day
[5] = test system: Mus musculus; test: Anti-inflammatory activity against MOG35-55-induced experimental autoimmune encephalomyelitis C57BL/6 mouse model assessed as fold change in NFKB gene expression in brain at 600 mg/kg/day, ig for 14 days starting from 12th day of immunization by RT-qPCR analysis relative to control; format: functional; conditions: time 14 day
[6] = test system: Mus musculus; test: Anti-inflammatory activity against MOG35-55-induced experimental autoimmune encephalomyelitis C57BL/6 mouse model assessed as fold change in BCL2 gene expression in brain at 600 mg/kg/day, ig for 14 days starting from 12th day of immunization by RT-qPCR analysis relative to control; format: functional; conditions: time 14 day
[7] = test system: Mus musculus; test: Anti-inflammatory activity against MOG35-55-induced experimental autoimmune encephalomyelitis C57BL/6 mouse model assessed as fold change in H2EB1 (HLA-DRB1) gene expression in brain at 600 mg/kg/day, ig for 14 days starting from 12th day of immunization by RT-qPCR analysis relative to control; format: functional; conditions: time 14 day
[8] = test system: Mus musculus; test: Anti-inflammatory activity against MOG35-55-induced experimental autoimmune encephalomyelitis C57BL/6 mouse model assessed as fold change in YWHAH gene expression in brain at 600 mg/kg/day, ig for 14 days starting from 12th day of immunization by RT-qPCR analysis relative to control; format: functional; conditions: time 14 day
[9] = test system: Mus musculus; test: Anti-inflammatory activity against MOG35-55-induced experimental autoimmune encephalomyelitis C57BL/6 mouse model assessed as fold change in HIF1A gene expression in brain at 300 mg/kg/day, ig for 14 days starting from 12th day of immunization by RT-qPCR analysis relative to control; format: functional; conditions: time 14 day
[10] = test system: Mus musculus; test: Anti-inflammatory activity against MOG35-55-induced experimental autoimmune encephalomyelitis C57BL/6 mouse model assessed as fold change in PLP gene expression in brain at 300 mg/kg/day, ig for 14 days starting from 12th day of immunization by RT-qPCR analysis relative to control; format: functional; conditions: time 14 day
[11] = test system: Mus musculus; test: Anti-inflammatory activity against MOG35-55-induced experimental autoimmune encephalomyelitis C57BL/6 mouse model assessed as fold change in IL6 gene expression in brain at 300 mg/kg/day, ig for 14 days starting from 12th day of immunization by RT-qPCR analysis relative to control; format: functional; conditions: time 14 day
[12] = test system: Mus musculus; test: Anti-inflammatory activity against MOG35-55-induced experimental autoimmune encephalomyelitis C57BL/6 mouse model assessed as fold change in TGFB1 gene expression in brain at 300 mg/kg/day, ig for 14 days starting from 12th day of immunization by RT-qPCR analysis relative to control; format: functional; conditions: time 14 day
[13] = test system: Mus musculus; test: Anti-inflammatory activity against MOG35-55-induced experimental autoimmune encephalomyelitis C57BL/6 mouse model assessed as fold change in GFAP gene expression in brain at 300 mg/kg/day, ig for 14 days starting from 12th day of immunization by RT-qPCR analysis relative to control; format: functional; conditions: time 14 day
[14] = test system: Mus musculus; test: Anti-inflammatory activity against MOG35-55-induced experimental autoimmune encephalomyelitis C57BL/6 mouse model assessed as reduction in serum Th1 cytokine level by measuring reduction in IFNG level at 600 mg/kg/day, ig for 14 days starting from 12th day of immunization by ELISA; format: functional, organism-based; conditions: time 14.0 day
[15] = test system: Mus musculus; test: Anti-inflammatory activity against MOG35-55-induced experimental autoimmune encephalomyelitis C57BL/6 mouse model assessed as reduction in serum monokines level by measuring reduction in IL-1B level at 600 mg/kg/day, ig for 14 days starting from 12th day of immunization by ELISA; format: functional, organism-based; conditions: time 14.0 day
[16] = test system: Mus musculus; test: Anti-inflammatory activity against MOG35-55-induced experimental autoimmune encephalomyelitis C57BL/6 mouse model assessed as reduction in serum chemokines level by measuring reduction in […] level at 600 mg/kg/day, ig for 14 days starting from 12th day of immunization by ELISA; format: functional, organism-based; conditions: time 14.0 day
[17] = test system: Mus musculus; test: Anti-inflammatory activity against MOG35-55-induced experimental autoimmune encephalomyelitis C57BL/6 mouse model assessed as increase in brain IL-4 level at 600 mg/kg/day, ig for 14 days starting from 12th day of immunization by ELISA; format: functional, organism-based; conditions: time 14.0 day
[18] = test system: Mus musculus; test: Anti-inflammatory activity against MOG35-55-induced experimental autoimmune encephalomyelitis C57BL/6 mouse model assessed as fold change in CXCL9 gene expression in brain at 0.3 mg/kg/day, ig for 14 days starting from 12th day of immunization by RT-qPCR analysis relative to control; format: functional; conditions: time 14 day
[19] = test system: Mus musculus; test: Anti-inflammatory activity against MOG35-55-induced experimental autoimmune encephalomyelitis C57BL/6 mouse model assessed as fold change in MBP gene expression in brain at 0.3 mg/kg/day, ig for 14 days starting from 12th day of immunization by RT-qPCR analysis relative to control; format: functional; conditions: time 14 day
[20] = test system: Mus musculus; test: Anti-inflammatory activity against MOG35-55-induced experimental autoimmune encephalomyelitis C57BL/6 mouse model assessed as fold change in PLP gene expression in brain at 0.3 mg/kg/day, ig for 14 days starting from 12th day of immunization by RT-qPCR analysis relative to control; format: functional; conditions: time 14 day
[21] = test system: Mus musculus; test: Anti-inflammatory activity against MOG35-55-induced experimental autoimmune encephalomyelitis C57BL/6 mouse model assessed as reduction in serum chemokines level by measuring reduction in CCL5 level at 0.3 mg/kg/day, ig for 14 days starting from 12th day of immunization by ELISA; format: functional, organism-based; conditions: time 14.0 day
[22] = test system: Mus musculus; test: Anti-inflammatory activity against MOG35-55-induced experimental autoimmune encephalomyelitis C57BL/6 mouse model assessed as methylation of CpG sites of […] gene promoter in brain at […], ig for 14 days starting from 12th day of immunization by PCR analysis (reference value: 13.1 +/-8%); format: functional; conditions: time 14 day
[23] = test system: Mus musculus; test: Anti-inflammatory activity against MOG35-55-induced experimental autoimmune encephalomyelitis C57BL/6 mouse model assessed as methylation of CpG sites of IL18 gene promoter in brain at […], ig for 14 days starting from 12th day of immunization by PCR analysis (reference value: 29.2 +/-8%); format: functional; conditions: time 14 day

CCCCCCCCCCCCCCCCCCCCCCCCC(=O)O[C@H]1CC[C@]2(C)[C@H]3CC=C4[C@@H]5CC(C)(C)CC[C@]5(CO)CC[C@@]4(C)[C@]3(C)CC[C@H]2C1(C)C
Stability [1]: Stable
Activity [2]: Active
fold change (FC) [3]: 1.27
fold change (FC) [4]: 1.93
fold change (FC) [5]: 1.46
fold change (FC) [6]: 1.68
fold change (FC) [7]: 11.4
fold change (FC) [8]: -1.78
fold change (FC) [9]: 1.92
fold change (FC) [10]: 1.9
fold change (FC) [11]: 3.18
fold change (FC) [12]: -1.51
fold change (FC) [13]: 1.17
Activity [14]: Active
Activity [15]: Active
Activity [16]: Active
Activity [17]: Active

CCCCCCCCc1ccc(CCC(N)(CO)CO)cc1 [FINGOLIMOD]
fold change (FC) [18]: -1.12
fold change (FC) [19]: 2.28
fold change (FC) [20]: -2.32
Activity [21]: Active
Activity [22]: 19%
Activity [23]: 29.5%
